Data: patent publication US20260297121A1, “MITHRAMYCIN (MTM) 2’ OXIMES” (University of Kentucky Research Foundation, priority 2023, published 2026)
Like-named read-outs stand apart in the source and are kept apart here.

How the values were obtained:
BL1395 = assay: Cytotoxicity, resazurin fluorescence, BL1395; format: cell-based; conditions: read-out: GI50 BL1395
log P = format: physicochemical; conditions: Table 2
A549 = assay: Cytotoxicity, resazurin fluorescence, A549; format: cell-based; conditions: Homo sapiens, read-out: GI50 A549
[1] = Clearance (CL) / pharmacokinetics; format: in vivo, mice; conditions: mouse, plasma, iv; Table 2
Experimental: (§1) Exemplary compounds of the presently-disclosed subject matter were assessed for activity, including clearance, potency, and selectivity. Results from studies are compiled in Tables 2-4.
(§2) Desirable clearance was identified at lower values of mL hr^−1kg^−1 (e.g., about ≤10 mL hr^−1 kg^−1), desirable potency was identified at lower values of IC50 (e.g., about ≤10 nM in TC32 cells), and desired selectivity was identified at higher ratios of IC50 in PC3/IC50 in TC32 (e.g. about >10).
Pharmacokinetics of exemplary compounds of the presently-disclosed subject matter were studied in mice following bolus IV dosing. Groups of three mice were administered the compound(s) and blood samples were collected via saphenous bleed. Plasma was separated by centrifugation and extracted to quantitate analytes by LC/MS/MS. Sample analysis followed upon the system meeting system suitability criteria customary for fit for purpose analytical methods. FIG. 1A includes data comparing YL-C09 to mithramycin (MTM) dosed separately. FIG. 1B includes data for YL-B171, YL-C110 and MTM dosed in cassette format.

ES8 = assay: Cytotoxicity, resazurin fluorescence, ES8; format: cell-based; conditions: Homo sapiens, ES8; Table 6; 72 hr; EWS cells
ES7 = assay: Cytotoxicity, resazurin fluorescence, ES7; format: cell-based; conditions: Homo sapiens, ES7; Table 6; 72 hr; EWS cells
EWS cells = assay: Cytotoxicity, average over Ewing (EWS) cell panel; format: cell-based; conditions: Table 6; 72 hr; average of EWS cells
Experimental: (§3) Exemplary compounds of the presently-disclosed subject matter were assessed for cytotoxicity (Table 5) in Ewing sarcoma (TC32) and non-Ewing (PC3 prostate cancer). […] Cells (1000-5000/well) were seeded in 96-well plates and allowed to attach and grow for 24 hr prior to adding compounds in half-log increments from 0.3 nM-10 μM. Cell viability was assessed after 72 hr continuous incubation with compounds using resazurin fluorescence. GI50 values were estimated using GraphPad Prism.

PC3 [2] = assay: IC50 in PC3 cells; format: cell-based; conditions: Homo sapiens, PC-3, read-out: IC50 PC2, Table 2; head prints PC2, text PC3
Experimental: as §1, §2

Non EWS cells = assay: Cytotoxicity, average over non-Ewing cell panel; format: cell-based; conditions: read-out: GI50 Average, Non EWS cells
Experimental: as §3

PC3 [3] = assay: Cytotoxicity, resazurin fluorescence, PC3; format: cell-based; conditions: Homo sapiens, PC-3, 72 h
Experimental: as §3

TC71 = assay: Cytotoxicity, resazurin fluorescence, TC71; format: cell-based; conditions: Homo sapiens, TC-71; Table 6; 72 hr; EWS cells
TC32 cells = assay: Potency IC50 in TC32 cells and selectivity; format: cell-based; conditions: Homo sapiens, TC-32, Table 2, read-out: IC50 TC32
Experimental: as §1, §2

5838 = assay: Cytotoxicity, resazurin fluorescence, 5838; format: cell-based; conditions: Table 6; 72 hr; express EWS-ERG
TC32 = assay: Cytotoxicity, resazurin fluorescence, TC32; format: cell-based; conditions: Homo sapiens, TC-32, 72 h
Experimental: as §3

DU145 = assay: Cytotoxicity, resazurin fluorescence, DU145; format: cell-based; conditions: Homo sapiens, read-out: GI50 DU145
H460 = assay: Cytotoxicity, resazurin fluorescence, H460; format: cell-based; conditions: Homo sapiens, read-out: GI50 H460
SK.ES1 = assay: Cytotoxicity, resazurin fluorescence, SK.ES1; format: cell-based; conditions: Homo sapiens, SK-ES1; Table 6; 72 hr; EWS cells
HepG2 = assay: Cytotoxicity, resazurin fluorescence, HepG2; format: cell-based; conditions: Homo sapiens, read-out: GI50 HepG2
ES4 = assay: Cytotoxicity, resazurin fluorescence, ES4; format: cell-based; conditions: Table 6; 72 hr; EWS cells
PANC1 = assay: Cytotoxicity, resazurin fluorescence, PANC1; format: cell-based; conditions: Homo sapiens, read-out: GI50 PANC1
Hela = assay: Cytotoxicity, resazurin fluorescence, Hela; format: cell-based; conditions: Homo sapiens, HeLa, read-out: GI50 Hela
A673 = assay: Cytotoxicity, resazurin fluorescence, A673; format: cell-based; conditions: Homo sapiens, A673; Table 6; 72 hr; EWS cells
ES3 = assay: Cytotoxicity, resazurin fluorescence, ES3; format: cell-based; conditions: Table 6; 72 hr; EWS cells
LNCap = assay: Cytotoxicity, resazurin fluorescence, LNCap; format: cell-based; conditions: Homo sapiens, LNCaP, read-out: GI50 LNCap
RDES = assay: Cytotoxicity, resazurin fluorescence, RDES; format: cell-based; conditions: RD-ES; Table 6; 72 hr; EWS cells
[4] = read-out: GI50 TC32, Table 6, EWS cells

Row | SMILES | logP (log P) | clearance [1] [mL/min/kg] | GI50 (ES8) [nM] | GI50 (ES7) [nM] | GI50 (EWS cells) [nM] | IC50 (PC3 [2]) [nM] | GI50 (PC3 [3]; read-out: GI50 PC3, Table 5) [nM] | GI50 (TC71) [nM] | IC50 (TC32 cells) [nM] | GI50 5838 [nM] | GI50 (TC32; read-out: GI50 TC32, Table 5) [nM] | GI50 (TC32; [4]) [nM] | GI50 (SK.ES1) [nM] | GI50 (ES4) [nM] | GI50 (A673) [nM] | GI50 (ES3) [nM] | GI50 (RDES) [nM] | also measured
1 | CO[C@H](C(=NOCCNC(=O)c1cc2cc(F)ccc2[nH]1)[C@@H](O)[C@@H](C)O)[C@@H]1Cc2cc3cc(O[C@H]4C[C@@H](O[C@H]5C[C@@H](O)[C@H](O)[C@@H](C)O5)[C@H](O)[C@@H](C)O4)c(C)c(O)c3c(O)c2C(=O)[C@H]1O[C@H]1C[C@@H](O[C@H]2C[C@@H](O[C@H]3C[C@](C)(O)[C@H](O)[C@@H](C)O3)[C@@H](O)[C@@H](C)O2)[C@H](O)[C@@H](C)O1 [YL-B168] | 1.62 | 0.717 | 68.8 | 76.9 | 66.9 | 19.5 | 65 | 258 | 2.15 | 40.2 | 30 | 30.3 | 39.2 | 30.9 | 34.5 | 56.7 | 32.9 | GI50 (BL1395; Lymphocyte, 72 h): 49.9 nM; GI50 (A549; A549, 72 h): 358 nM; GI50 (Non EWS cells; 72 h): 191 nM; GI50 (PC3 [3]; read-out: GI50 PC3, Table 6, non EWS cells): 65.2 nM; GI50 (DU145; DU-145, 72 h): 90.5 nM; GI50 (H460; NCI-H460, 72 h): 116 nM; GI50 (HepG2; HepG2, 72 h): > 1000 nM; GI50 (PANC1; PANC-1, 72 h): 105 nM; GI50 (Hela; 72 h): 470 nM; GI50 (LNCap; 72 h): 275 nM
2 | COC(C(=NOCCNC(=O)c1cc2cc(Br)ccc2[nH]1)C(O)C(C)O)C1Cc2cc3cc(OC4CC(OC5CC(O)C(O)C(C)O5)C(O)C(C)O4)c(C)c(O)c3c(O)c2C(=O)C1OC1CC(OC2CC(OC3CC(C)(O)C(O)C(C)O3)C(O)C(C)O2)C(O)C(C)O1 (stereo not drawn) [YL-B169] | 2.37 | 0.467 | 68.7 | 25.6 | 43.8 | 20.6 | 34 | 152 | 1.16 | 30.2 | 18 | 18.4 | 24.4 | 25.1 | 26 | 38.4 | 29.1 | GI50 (BL1395; Table 6, 72 hr, lymphocyte origin): 31.3 nM; GI50 (A549; A549, Table 6, 72 hr, non EWS cells): 558 nM; GI50 (Non EWS cells; Table 6, 72 hr, average of non EWS cells): 171 nM; GI50 (PC3 [3]; Table 6, non EWS cells, read-out: GI50 PC3): 34 nM; GI50 (DU145; DU-145, Table 6, 72 hr, non EWS cells): 49.9 nM; GI50 (H460; NCI-H460, Table 6, 72 hr, non EWS cells): 78.7 nM; GI50 (HepG2; HepG2, Table 6, 72 hr, hepatic origin): 306 nM; GI50 (PANC1; PANC-1, Table 6, 72 hr, non EWS cells): 62.1 nM; GI50 (Hela; Table 6, 72 hr, non EWS cells): 176 nM; GI50 (LNCap; Table 6, 72 hr, non EWS cells): 239 nM
3 | CO[C@H](C(=NOCCNC(=O)c1[nH]c2ccc(Cl)cc2c1-c1cncnc1)[C@@H](O)[C@@H](C)O)[C@@H]1Cc2cc3cc(O[C@H]4C[C@@H](O[C@H]5C[C@@H](O)[C@H](O)[C@@H](C)O5)[C@H](O)[C@@H](C)O4)c(C)c(O)c3c(O)c2C(=O)[C@H]1O[C@H]1C[C@@H](O[C@H]2C[C@@H](O[C@H]3C[C@](C)(O)[C@H](O)[C@@H](C)O3)[C@@H](O)[C@@H](C)O2)[C@H](O)[C@@H](C)O1 [YL-C122] | 1.73 | 0.683 | – | – | – | 124 | 477 | – | 18.5 | – | 162 | – | – | – | – | – | – | –
